Patent US11155546B2, “4,6,7-trisubstituted 1,2-dihydropyrrolo[3,4-c]pyridin/pyrimidin-3-one derivatives and uses thereof” (SHANGHAI HAIYAN PHARMACEUTICAL TECHNOLOGY CO., LTD., priority 2017, dated 2021)

Legend:
BTK WT = BTK WT (Homo sapiens (Human), UniProt Q06187); experiment: Lantha screening kinase reaction, inhibition of BTK WT; type: biochemical
Method: The compound was predissolved in 100% DMSO. 10 mM drug stock solution was obtained by dissolution at room temperature and then serially diluted with 8 vol % DMSO solution to a final concentration of 10-0.005 μM. […] Among the wells, the kinase in the blank well was replaced with a reaction buffer and the kinase well (Enzyme) was not added with any drug. After shaking at 25° C. for 60 minutes in the dark, 10 μl of Detection Solution (mixture of Invitrogen PV3528 and EDTA, which was diluted with TR-FRET dilution buffer, the working concentration of EDTA was 5 mM, the working concentration of Lanthascreening Tb PY20 antibody was 0.2 nM) was added and shaken at room temperature for 30 minutes. The plates were read on a VictorX5 fluorescent plate reader (PerkinElmer) and the light absorption at an excitation wavelength of 340 nm and emission wavelengths of 500 nm and 520 nm was measured.
The calculation method for the inhibition ratio (referring to the specification of Invitrogen, PV3363) was as follows: Emission ratio (ER):Coumarin Emission (520 nm)/Fluorescein Emission (500 nm) 1. The inhibition ratio (IR):(ERkinase−ERtest compound)/(ERkinase−ERblank)×100%. 2.
The half-inhibitory concentration IC50 was calculated by fitting with XLFIT5.0 software (IDBS, UK).

wild-type EGFR kinase = wild-type EGFR kinase (Homo sapiens (Human), UniProt P00533); experiment: Wild type EGFR kinase inhibition test (z-lyte); type: biochemical; conditions: 10 μM ATP; read-out: EGFR WT IC50
From the text: All the following reagents used in z-lyte test are commercially available from Invitrogen.
The calculation method for the inhibition ratio (referring to the specification of Invitrogen, PV3363) was as follows: ER=Coumarin Emission(450 nm)/Fluorescein Emission(520 nm) 1. Phosphorylation ratio=(1−((ER×C3520nm−C3450nm)/((C1450nm−C3450nm)+ER×(C3520nm−C1520nm))))×100% 2. Inhibition ratio (IR)=(1−phosphorylation ratio of the test compound)/(phosphorylation ratio of C2))×100% 3.
The half-inhibitory concentration IC50 was calculated by fitting with XLFIT 5.0 software (IDBS, UK).

in vivo = conditions: male, ICR, mouse, in vivo, po, 30 mg/kg
Method: Test Animals: ICR mice, weight 28-30 g, male, totally 12, purchased from SLAC Laboratory Animal Co., Ltd. Mice were fasting one night before administration and freely fed 4 hours after administration.
Administration and Blood collection: 6 mice were administered intragastrically (PO) in a administered dosage of 30 mg/kg and a administered volume of 10 mL/kg. One administration route was subjected with 6 mice, blood samples of three mice were collected at one time point, and blood samples of another three mice were collected at alternate time point alternately. Blood was collected at 8 time points of 0.083, 0.25, 0.5, 1, 2, 4, 8, 24 h after administration respectively.
Animals were manually controlled at the time of collection and approximately 80 μL of blood was collected from the mice fundus venous plexus into a tube containing K2EDTA. The collected blood sample was put on wet ice, centrifuged within 15 min (8000 rpm, 4 min at 4° C.), and then the plasma sample was taken and stored at minus 20° C. till analysis. The compounds were prepared on the day of the experiment.
Solvent excipient information: DMSO (brand: Sigma, batch number: SHBD2446V); 2-hydroxypropyl-3-cyclodextrin (brand: Sigma, batch number: BCBN8227V), acetic acid (brand: Sinopharm Group, batch number: 20150616), sodium acetate (Brand: GENERAL-REAGENT, batch number: P1246037).
Preparation of a 3 mg/mL PO dosing solution: the solvent was a solution of 5% DMSO and 95% PH4.5 (sodium acetate-acetate) in 20% of 2-hydroxypropyl-β-cyclodextrin.
Analytical method: Plasma samples were analyzed by liquid chromatography-tandem mass spectrometry (Instrument type: Triple Quad™ 4000).
Preparation of the standard curve: preparing a standard curve of the test compound 1n the plasma matrix of ICR mice with a linear range of 1.00-3000 ng/mL, and preparing control samples at low, medium and high concentrations of 3 ng/mL, 500 ng/mL, and 2400 ng/mL respectively.
Treatment of biological samples: the frozen plasma samples were thawed on ice, and after the samples were thawed, they were vortexed on a vortex for 5 min. 20 μL of plasma sample was added to a 96-well plate, and 200 μL of acetonitrile (brand: Merck, Lot: 1854029643) containing an internal standard dexamethasone (Brand: NIFDC, Lot: 1N2V-DPGY, 2000 ng/mL) was added to precipitate protein, which were vortexed for 5 min, and then centrifuged at 3700 rpm and 4° C. for 15 min. The supernatant was extracted and twice centrifuged under the same conditions, and finally 2 μL of the supernatant solution was analyzed by LC-MS/MS.

BTK WT, sequence (Q06187 whole entry): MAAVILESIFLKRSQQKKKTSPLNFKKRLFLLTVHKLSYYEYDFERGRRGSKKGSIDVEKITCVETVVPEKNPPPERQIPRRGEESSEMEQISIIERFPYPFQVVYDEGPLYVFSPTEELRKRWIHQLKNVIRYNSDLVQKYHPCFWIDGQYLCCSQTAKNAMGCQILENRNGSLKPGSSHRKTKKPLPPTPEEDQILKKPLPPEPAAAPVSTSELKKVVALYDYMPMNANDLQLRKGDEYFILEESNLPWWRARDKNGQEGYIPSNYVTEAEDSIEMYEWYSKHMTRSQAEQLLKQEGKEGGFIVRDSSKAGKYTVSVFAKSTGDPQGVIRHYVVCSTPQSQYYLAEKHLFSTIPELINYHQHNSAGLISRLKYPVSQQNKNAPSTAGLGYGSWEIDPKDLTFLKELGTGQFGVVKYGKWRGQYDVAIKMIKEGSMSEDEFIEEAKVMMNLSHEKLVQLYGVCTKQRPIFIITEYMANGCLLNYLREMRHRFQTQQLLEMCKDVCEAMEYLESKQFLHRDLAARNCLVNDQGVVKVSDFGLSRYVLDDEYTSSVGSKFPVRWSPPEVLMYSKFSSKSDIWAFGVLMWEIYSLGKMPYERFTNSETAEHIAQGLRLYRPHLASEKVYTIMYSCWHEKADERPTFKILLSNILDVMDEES
wild-type EGFR kinase, sequence (P00533 25-1210): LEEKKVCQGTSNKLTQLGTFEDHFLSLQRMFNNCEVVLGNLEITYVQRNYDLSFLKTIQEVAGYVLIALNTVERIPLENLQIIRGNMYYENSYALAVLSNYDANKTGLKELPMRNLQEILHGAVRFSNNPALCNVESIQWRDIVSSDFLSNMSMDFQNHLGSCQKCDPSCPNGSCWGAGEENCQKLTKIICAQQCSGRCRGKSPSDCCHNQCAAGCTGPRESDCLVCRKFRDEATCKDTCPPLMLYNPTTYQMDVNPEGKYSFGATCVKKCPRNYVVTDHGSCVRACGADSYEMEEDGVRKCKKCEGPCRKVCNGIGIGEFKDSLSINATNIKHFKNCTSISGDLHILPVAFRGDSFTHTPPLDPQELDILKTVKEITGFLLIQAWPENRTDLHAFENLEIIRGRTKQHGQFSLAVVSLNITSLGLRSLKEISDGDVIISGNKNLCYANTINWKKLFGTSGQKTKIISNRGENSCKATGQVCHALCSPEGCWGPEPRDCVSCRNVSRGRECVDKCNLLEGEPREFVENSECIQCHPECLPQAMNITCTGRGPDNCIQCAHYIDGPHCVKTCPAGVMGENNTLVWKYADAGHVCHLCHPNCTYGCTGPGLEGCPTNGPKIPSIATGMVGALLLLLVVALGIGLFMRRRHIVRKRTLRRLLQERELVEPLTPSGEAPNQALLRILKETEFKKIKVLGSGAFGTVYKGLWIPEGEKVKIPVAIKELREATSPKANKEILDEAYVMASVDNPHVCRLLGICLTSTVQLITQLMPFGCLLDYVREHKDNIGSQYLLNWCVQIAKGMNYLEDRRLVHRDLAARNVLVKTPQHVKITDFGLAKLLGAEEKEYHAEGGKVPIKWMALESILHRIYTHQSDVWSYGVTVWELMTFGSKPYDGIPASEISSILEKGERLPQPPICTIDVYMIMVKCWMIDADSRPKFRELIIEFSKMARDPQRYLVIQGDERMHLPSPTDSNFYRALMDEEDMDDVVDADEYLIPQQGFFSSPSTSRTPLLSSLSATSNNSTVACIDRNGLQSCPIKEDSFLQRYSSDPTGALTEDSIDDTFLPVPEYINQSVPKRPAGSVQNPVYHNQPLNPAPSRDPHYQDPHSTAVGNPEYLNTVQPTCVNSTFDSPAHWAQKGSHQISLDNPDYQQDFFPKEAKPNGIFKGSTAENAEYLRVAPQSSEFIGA

## C=CC(=O)N1CCC(Nc2nc(Nc3ccc(OCCOC)cc3)c3c(c2F)CNC3=O)C1 (stereo not drawn) [Compound G-9]
BTK WT
  IC50: 7 nM
wild-type EGFR kinase
  IC50: 1010 nM

## C=CC(=O)N1CCCC(Nc2nc(Nc3ccc(OCCO)cc3)c3c(c2F)CNC3=O)C1 (stereo not drawn) [Compound G-16]
BTK WT
  IC50: 2 nM
wild-type EGFR kinase
  IC50: 2750 nM

## C=CC(=O)N1CCCC(Nc2nc(Nc3ccc(N4CCN(C)CC4)nc3)c3c(c2F)CNC3=O)C1 (stereo not drawn) [Compound G-18]
BTK WT
  IC50: 41 nM
wild-type EGFR kinase
  IC50: 1600 nM

## C=CC(=O)N1CCCC(Nc2nc(Nc3ccc(N4CCC(O)C(C)(C)C4)cn3)c3c(c2F)CNC3=O)C1 (stereo not drawn) [Compound G-21]
BTK WT
  IC50: 59 nM
wild-type EGFR kinase
  IC50: 8310 nM

## C=CC(=O)N1CCCC(Nc2nc(Nc3ccc(N4CCN(C5COC5)CC4C)cn3)c3c(c2F)CNC3=O)C1 (stereo not drawn) [Compound G-22]
BTK WT
  IC50: 66 nM

## C=CC(=O)N1CCCC(Nc2nc(Nc3ccc(C(=O)N4CCOCC4)cc3)c3c(c2F)CNC3=O)C1 (stereo not drawn) [Compound G-24]
BTK WT
  IC50: 5 nM
wild-type EGFR kinase
  IC50: 1790 nM

## C=CC(=O)N1CCCC(Nc2nc(Nc3cnn(C)c3)c3c(c2F)CNC3=O)C1 (stereo not drawn) [Compound G-38]
BTK WT
  IC50: 2 nM
wild-type EGFR kinase
  IC50: 1290 nM

## C=CC(=O)N1CCCCC(Nc2nc(-c3cnn(C)c3)c3c(c2F)CNC3=O)C1 (stereo not drawn) [Compound G-47]
BTK WT
  IC50: 75 nM
wild-type EGFR kinase
  IC50: > 10000 nM

## C=CC(=O)N1CCCC(Nc2nc(-c3cnc(C)s3)c3c(c2F)CNC3=O)C1 (stereo not drawn) [Compound G-53]
BTK WT
  IC50: 51 nM
wild-type EGFR kinase
  IC50: 7440 nM

## C=CC(=O)N1CCCC(Nc2nc(-c3cnn(C)c3)c3c(c2F)CNC3=O)C1 (stereo not drawn) [Compound G-54]
BTK WT
  IC50: 15 nM
wild-type EGFR kinase
  IC50: > 10000 nM

## C=CC(=O)N1CCCC(Nc2nc3c(c(-c4cnn(C)c4)n2)C(=O)NC3)C1 (stereo not drawn) [Compound G-58, 2-(1-acryloylpiperidin-3-ylamino)-4-(1-methyl-1H-pyrazole-4-yl)-6,7-dihydrogen-5H-pyrrolo[3,4-d]pyrimidine-5(2H)-one]
BTK WT
  IC50: 80 nM
wild-type EGFR kinase
  IC50: > 10000 nM

## C=CC(=O)N1CCCC(N(C)c2nc(-c3cnn(CCN4CCOCC4)c3)c3c(c2F)CNC3=O)C1 (stereo not drawn) [Compound G-64, 6-((1-acryloylpiperidin-3-yl)(methyl)amino)-7-fluoro-4-(1-(2-morpholinethyl)-1H-pyrazole-4-yl)-1H-pyrrolo[3,4-c]pyridine-3(2H)-one]
BTK WT
  IC50: 62 nM
wild-type EGFR kinase
  IC50: > 10000 nM

## C=CC(=O)N1CC(N(C)c2nc(-c3cnn(C)c3)c3c(c2F)CNC3=O)CCC1C (stereo not drawn) [Compound G-65, 6-((1-acryloyl-6-methylpiperidin-3-yl)(methyl)amino)-7-fluoro-4-(1-methyl-1H-pyrazole-4-yl)-1H-pyrrolo[3,4-c]pyridine-3(2H)-one]
BTK WT
  IC50: 7 nM
wild-type EGFR kinase
  IC50: > 10000 nM

## C=CC(=O)N1CCCC(N(C)c2nc(-c3cnc(C)s3)c3c(c2F)CNC3=O)C1 (stereo not drawn) [Compound G-66, 6-((1-acryloylpiperidin-3-yl)(methyl)amino)-7-fluoro-4-(2-methylthiazole-5-yl)-1H-pyrrolo[3,4-c]pyridine-3(2H)-one]
BTK WT
  IC50: 15 nM
wild-type EGFR kinase
  IC50: > 10000 nM

## C=CC(=O)N1CCCC(N(C)c2nc(Nc3cnn(C)c3)c3c(c2F)CNC3=O)C1 (stereo not drawn) [Compound G-70, 6-((1-acryloylpiperidin-3-yl)(methyl)amino)-7-fluoro-4-(1-methyl-1H-pyrazole-4-ylamino)-1H-pyrrolo[3,4-c]pyridine-3(2H)-one]
BTK WT
  IC50: 5 nM
wild-type EGFR kinase
  IC50: > 10000 nM

## C=CC(=O)N1CCCCC(N(C)c2nc(Nc3ccc(N4CCOCC4)cc3)c3c(c2F)CNC3=O)C1 (stereo not drawn) [Compound G-73, 6-((1-acryloylazacycloheptan-3-yl)(methyl)amino)-7-fluoro-4-(4-morpholin)-1H-pyrrolo[3,4-c]pyridine-3(2H)-one]
BTK WT
  IC50: 5 nM
wild-type EGFR kinase
  IC50: 1560 nM

## C=CC(=O)N1CCCC(N(CC)c2nc(Nc3ccc(N4CCOCC4)cc3)c3c(c2F)CNC3=O)C1 (stereo not drawn) [Compound G-74, 6-((1-acryloylpiperidin-3-yl)(ethyl)amino)-7-fluoro-4-(4-morpholin)-1H-pyrrolo[3,4-c]pyridine-3(2H)-one]
BTK WT
  IC50: 7 nM
wild-type EGFR kinase
  IC50: 1370 nM

## C=CC(=O)N1CCCC(N(C)c2nc3c(c(Nc4cnn(C)c4)n2)C(=O)NC3)C1 (stereo not drawn) [Compound G-75, 2-((1-acryloylpiperidin-3-yl)(methyl)amino)-4-(1-methyl-1H-pyrazole-4-ylamino)-6,7-dihydrogen-5H-pyrrolo[3,4-d]pyrimidine-5-one]
BTK WT
  IC50: 6 nM
wild-type EGFR kinase
  IC50: 1630 nM

## C=CC(=O)N1CCC2(CCN(c3nc(-c4cnn(C)c4)c4c(c3F)CNC4=O)C2)C1 (stereo not drawn) [Compound G-77]
BTK WT
  IC50: 51 nM
wild-type EGFR kinase
  IC50: > 10000 nM

## C=CC(=O)N1CC2CCN(c3nc(Nc4cnn(C)c4)c4c(c3F)CNC4=O)C2C1 (stereo not drawn) [Compound G-84]
BTK WT
  IC50: 89 nM
wild-type EGFR kinase
  IC50: > 10000 nM

## C=CC(=O)N1CC2CN(c3nc(-c4cnn(C)c4)c4c(c3F)CNC4=O)CC2C1 (stereo not drawn) [Compound G-89]
BTK WT
  IC50: 5 nM

## C=CC(=O)N1CCC[C@@H](Nc2nc(Nc3ccc(N4CCN(C5COC5)C[C@@H]4C)c(F)c3)c3c(c2F)CNC3=O)C1 [Compound G-91]
BTK WT
  IC50: 5 nM
In vivo
  AUC: 3150 ng·h/mL
  Cmax: 2910 ng/mL
  Tmax: 0.25 h
  bioavailability: 21.3%
  half-life: 4.7 h

## C=CC(=O)N1C[C@H](N(C)c2nc(Nc3ccc(N4CCOCC4)c(F)c3)c3c(c2F)CNC3=O)CC[C@@H]1C [Compound G-92]
BTK WT
  IC50: 8 nM

## C=CC(=O)N1CCC[C@@H](N(C)c2nc(-c3cnc(C)s3)c3c(c2F)CNC3=O)C1 [Compound G-94]
BTK WT
  IC50: 20 nM

## C=CC(=O)N1C[C@H](Nc2nc(Nc3ccc(N4CCN(C5COC5)C[C@@H]4C)c(F)c3)c3c(c2F)CNC3=O)CC[C@@H]1C [Compound G-95]
BTK WT
  IC50: 5 nM

## C=CC(=O)N1CCC[C@@H](Nc2nc(Nc3ccc(CN4CCOCC4)cc3)c3c(c2F)CNC3=O)C1 [Compound G-97]
BTK WT
  IC50: 5 nM

## C=CC(=O)N1C[C@H](N(C)c2nc(-c3cnn(C)c3)c3c(c2F)CNC3=O)CC[C@H]1C [Compound G-99]
BTK WT
  IC50: 18 nM

## C=CC(=O)N1CCC[C@@H](Nc2nc(Nc3ccc(N4CCOC[C@@H]4C)cc3F)c3c(c2F)CNC3=O)C1 [Compound G-102]
BTK WT
  IC50: 5 nM

## C=CC(=O)N1CCC[C@@H](N(C)c2nc(-c3c[nH]c(C)n3)c3c(c2F)CNC3=O)C1 [Compound G-105]
BTK WT
  IC50: 8 nM

## C=CC(=O)N1CCC[C@@H](Nc2cc3c(c(Nc4ccc(N5CCOCC5)cc4)n2)C(=O)NC3)C1 [Compound G-107]
BTK WT
  IC50: 5 nM

## C=CC(=O)N1CCC[C@H](Nc2nc(-c3cnn(C)c3)c3c(c2F)CNC3=O)[C@@H]1C [Compound G-109]
BTK WT
  IC50: 62 nM
wild-type EGFR kinase
  IC50: 6820 nM

## C=CC(=O)N1CCC[C@H](N(C)c2nc(-c3cnn(C)c3)c3c(c2F)CNC3=O)C1 [Compound G-112]
BTK WT
  IC50: 18 nM
wild-type EGFR kinase
  IC50: > 10000 nM

## C=CC(=O)N1CCC[C@@H](N(C)c2nc(-c3cnn(C)c3)c3c(c2F)CNC3=O)C1 [Compound G-113]
BTK WT
  IC50: 5 nM
wild-type EGFR kinase
  IC50: 6170 nM
